# Like-named read-outs stand apart in the source and are kept apart here. Positions of bridges follow the written chain, without caps; N, C: chain ends. Non-standard residues stand in square brackets, D forms with d. Residues, ends and D or L forms follow the SMILES beside them. Lys(N3) = [N-]=[N+]=NCCCC[C@H](N)C(=O)O; 2Nal = N[C@@H](Cc1ccc2ccccc2c1)C(=O)O; R8 = C=CCCCCCC[C@@](C)(N)C(=O)O; αMeE = C[C@](N)(CCC(=O)O)C(=O)O; Cba = N[C@@H](CC1CCC1)C(=O)O; S5 = C=CCCC[C@](C)(N)C(=O)O; Ahx = NCCCCCC(=O)O; βAla = NCCC(=O)O
# What was measured:
# human Mdm2 1–125 = target: T1, human Mdm2 1–125 (Homo sapiens, UniProt Q00987); experiment: Mdm2 binding by competitive fluorescence anisotropy assay (FP binding); conditions: read-out: FP binding assay KD
# T1 construct: GST (N); His6 (internal); TEV cleavage site (ENLYFQG) (internal); made in house; host or cells: BL21 (DE3) Rosetta T1R Escherichia coli
# Description: The TEV (tobacco etch virus) cleavage site was changed from ENLYFQS to ENLYFQG to give a fusion protein with the following sequence:
# [P] is the protein concentration (Mdm2), [L] is the labeled peptide concentration, r is the anisotropy measured, r0 is the anisotropy of the free peptide, rb is the anisotropy of the Mdm2–FAM-labeled peptide complex, Kd is the dissociation constant, [L]t is the total FAM labeled peptide concentration, and [P]t is the total Mdm2 concentration. […] This value was then used to determine apparent Kd values of the respective competing ligands in subsequent competition assays in fluorescence anisotropy experiments.
# The competing molecules were then titrated against the complex of the FAM-labeled peptide and protein. Apparent Kd values were determined by fitting the experimental data to equations shown below:2 r=ro+(rb−ro)×2(d^2−3e)cos(θ/3)−9/3Kd1+2(d^2−3e)cos(θ/3)−d 3 d=Kd1+Kd2+[L]st+[L]t−Pt 4 e=Lt−PtKd1+Lst+PtKd2+Kd1Kd2 5 f=−Kd1Kd2[P]t 6 θ=arcos−2d^3+9de−27f/2(d^2−3e)^3
# [L]st and [L]t denote labeled ligand and total unlabeled ligand input concentrations, respectively. Kd2 is the dissociation constant of the interaction between the unlabeled ligand and the protein. In all competition experiments, it is assumed that [P]t > [L]st, otherwise considerable amounts of free labeled ligand would always be present and would interfere with measurements. […] The FAM-labeled peptide was dissolved in dimethyl sulfoxide (DMSO) at 1 mM and diluted into experimental buffer. Readings were carried out with an Envision Multilabel Reader (PerkinElmer). […] Curve-fitting was carried out using Prism 4.0 (GraphPad). […] Negative control titrations of the ligands under investigation were also carried out with the fluorescently labeled peptide (in the absence of Mdm2) to ensure no interactions were occurring between the ligands and the FAM-labeled peptide. […] Measurements were taken a minimum of three times (biological replicates) and values are reported as geometric means of the replicates.
# [1] = system: p53 responsive β-lactamase reporter in HCT116 cells; experiment: cells; format: cell-based; conditions: read-out: p53 reporter assay EC50
# Outline: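 HCT116 cells stably carrying a p53-responsive β-lactamase reporter, seeded at 8000 cells/well, with 0.5% DMSO final. Reporter activity read by ToxBLAzer Dual Screen. Values are geometric means of at least three biological replicates.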
# [2] = system: Jump-In T-REx CHO-K1 BLA cells; experiment: cells; format: cell-based; conditions: for EC50: read-out: TETCHO: Counterscreen EC50
# HCT116 cells = experiment: Lactate dehydrogenase (LDH) release assay; format: cell-based
# Outline: (§1)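 Read-out was lactate dehydrogenase release, reflecting loss of membrane integrity, in reporter-engineered HCT116 cells (p53-responsive β-lactamase) seeded at 8000 cells per well. Final DMSO was 0.5%, and reported values are geometric means from three or more biological repeats.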
# [3] = Lactate dehydrogenase (LDH) release assay; format: cell-based
# Outline: as §1
# [4] = Experimental LogD (partition coefficient)
# in vitro = conditions: Nanoclick permeability assay EC50
# Outline: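 Azido-peptide permeability was read as loss of NanoBRET signal (donor 450 nm, acceptor 610 nm) after adding NanoBret618-azide at 10 μM final.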
# [5] = Solubility assay (kinetic solubility, PBS pH 7); format: physicochemical; conditions: for solubility kinetic: read-out: Solubility
# Outline: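 Quantitation uses an external standard at 100 µM, prepared from 10 mM stock in acetonitrile:methanol:DMSO (10:80:10). Solubility (µM) = (peak area of sample ÷ peak area of standard) × standard concentration.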
# EPSA = format: physicochemical; conditions: EPSA
# [6] = system: CellSensor p53RE-bla HCT-116 Cell Line; conditions: 72 h
# Outline: (§2)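 Compound dilution series (10 points, 3-fold, 10 mM top stock in DMSO) tested on overnight-plated Ca Ski cells in RPMI1640/10% FBS and on blasticidin-selected p53RE-bla HCT-116 cells in McCoy's 5A; read-out was CellTiter-Glo 2.0 luminescence after room-temperature equilibration.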
# Ca Ski cell line = conditions: 72 h
# Outline: as §2
# T1 sequence (Q00987 with tags, fused parts or gaps): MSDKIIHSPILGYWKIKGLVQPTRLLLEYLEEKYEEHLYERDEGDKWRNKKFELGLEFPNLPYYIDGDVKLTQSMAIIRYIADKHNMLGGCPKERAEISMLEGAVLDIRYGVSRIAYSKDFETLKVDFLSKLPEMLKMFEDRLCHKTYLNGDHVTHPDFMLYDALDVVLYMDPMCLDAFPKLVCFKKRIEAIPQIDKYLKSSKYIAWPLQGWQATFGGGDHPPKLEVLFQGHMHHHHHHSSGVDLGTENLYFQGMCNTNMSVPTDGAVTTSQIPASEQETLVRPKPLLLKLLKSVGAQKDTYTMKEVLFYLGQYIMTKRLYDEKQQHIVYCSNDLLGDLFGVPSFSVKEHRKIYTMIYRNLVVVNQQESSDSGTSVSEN
SMILES,Kd (human Mdm2 1–125) [µM],EC50 ([1]; 0% FBS 4Hr) [µM],TETCHO: Counterscreen % Effect ([2]; 0% FBS 4Hr) [%],EC50 ([2]; 0% FBS 4Hr) [µM],LDH: Cytotoxicity assay % Effect (HCT116 cells) [%],EC50 ([3]; LDH: Cytotoxicity assay EC50) [µM],other results
CC(=O)N[C@H](C(=O)N[C@@H](CO)C(=O)N[C@@H](Cc1ccccc1)C(=O)N[C@]1(C)CCCCCCC=CCCC[C@@](C)(C(=O)N[C@@H](CCC(=O)O)C(N)=O)NC(=O)[C@H](CC(C)C)NC(=O)[C@H](CC(C)C)NC(=O)[C@H](C)NC(=O)[C@H](Cc2c[nH]c3ccccc23)NC(=O)[C@H](Cc2ccc(O)cc2)NC(=O)[C@H](CCC(=O)O)NC1=O)[C@@H](C)O [MP-139],< 0.001,6.25,1.538,> 50,20.87,38.8,–
CC(=O)N[C@H](C(=O)N[C@@H](CO)C(=O)N[C@@H](Cc1ccccc1)C(=O)N[C@]1(C)CCCCCCC=CCCC[C@@](C)(C(N)=O)NC(=O)[C@H](CC(C)C)NC(=O)[C@H](CC(C)C)NC(=O)[C@H](C)NC(=O)[C@H](Cc2c[nH]c3ccccc23)NC(=O)[C@H](Cc2ccc(O)cc2)NC(=O)[C@H](Cc2c[nH]cn2)NC1=O)[C@@H](C)O [MP-138] (Ac-TSF[R8]HYWALL[S5]-NH2; staple 4-11),0.0879,4.9,24.03,> 50,0.2053,> 50,–
CC(=O)N[C@H](C(=O)N[C@@H](CO)C(=O)N[C@@H](Cc1ccc2ccccc2c1)C(=O)N[C@]1(C)CCCCCCC=CCCC[C@@](C)(C(N)=O)NC(=O)[C@H](CC(C)C)NC(=O)[C@H](CC(C)C)NC(=O)[C@H](C)NC(=O)[C@H](Cc2c[nH]c3ccccc23)NC(=O)[C@H](Cc2ccc(O)cc2)NC(=O)[C@H](CCC(=O)O)NC1=O)[C@@H](C)O [MP-145] (Ac-TS[2Nal][R8]EYWALL[S5]-NH2; staple 4-11),4.33,23.8,30.02,> 50,48.85,36.5,–
CC(=O)N[C@H](C(=O)N[C@@H](CO)C(=O)N[C@@H](Cc1ccc2ccccc2c1)C(=O)N[C@]1(C)CCCCCCC=CCCC[C@@](C)(C(=O)N[C@@H](CO)C(=O)N[C@@H](C)C(=O)N[C@@H](C)C(=O)N[C@@H](CCC(=O)O)C(N)=O)NC(=O)[C@H](CC(C)C)NC(=O)[C@H](CC(C)C)NC(=O)[C@H](C)NC(=O)[C@H](Cc2c[nH]c3ccccc23)NC(=O)[C@H](Cc2ccc(O)cc2)NC(=O)[C@H](CCC(=O)O)NC1=O)[C@@H](C)O [MP-144] (Ac-TS[2Nal][R8]EYWALL[S5]SAAE-NH2; staple 4-11),46.7,5.01,-3.58,> 50,83.26,15.6,–
CC(C)C[C@@H]1NC(=O)[C@H](C)NC(=O)[C@H](Cc2c[nH]c3ccccc23)NC(=O)[C@H](Cc2ccc(O)cc2)NC(=O)[C@H](CCC(=O)O)NC(=O)[C@](C)(NC(=O)[C@H](Cc2ccccc2)NC(=O)[C@H](CO)NC(=O)[C@@H](NC(=O)[C@H](CO)NC(=O)CNC(=O)[C@@H](N)CO)[C@@H](C)O)CCCCCCC=CCCC[C@@](C)(C(N)=O)NC(=O)[C@H](CC(C)C)NC1=O [MP-132],0.0459,39.6,9.469,> 50,1.056,> 50,–
CC(=O)N[C@@H](CCCCN)C(=O)N[C@@H](CCCCN)C(=O)N[C@@H](CCCCN)C(=O)NCCCCCC(=O)N[C@H](C(=O)N[C@@H](CO)C(=O)N[C@@H](Cc1ccccc1)C(=O)N[C@]1(C)CCCCCCC=CCCC[C@@](C)(C(=O)N[C@@H](CCC(=O)O)C(=O)N[C@@H](CC(N)=O)C(=O)N[C@@H](Cc2ccccc2)C(N)=O)NC(=O)[C@H](CC(C)C)NC(=O)[C@H](CC(C)C)NC(=O)[C@H](C)NC(=O)[C@H](Cc2c[nH]c3ccccc23)NC(=O)[C@H](Cc2ccc(O)cc2)NC(=O)[C@H](CCC(=O)O)NC1=O)[C@@H](C)O [MP-5364] (Ac-KKK[Ahx]TSF[R8]EYWALL[S5]ENF-NH2; staple 8-15),0.0391,2.55,62.33,31.9,–,> 50,EC50 ([1]; 0% FBS 16Hr): 4.96 µM; TETCHO: Counterscreen % Effect ([2]; 0% FBS 16Hr): 3.12%
CC(=O)N[C@H](C(=O)N[C@@H](CO)C(=O)N[C@@H](Cc1ccccc1)C(=O)NC(C)(C)C(=O)N[C@@H](CCC(=O)O)C(=O)N[C@@H](Cc1ccc(O)cc1)C(=O)N[C@@H](Cc1c[nH]c2ccccc12)C(=O)N[C@@H](C)C(=O)N[C@@H](CC(C)C)C(=O)N[C@@H](CC(C)C)C(=O)NC(C)(C)C(N)=O)[C@@H](C)O [MP-153],0.133,34.2,16.18,> 50,0.7534,> 50,–
CC(=O)N[C@@H](CCCCN=[N+]=[N-])C(=O)NCCC(=O)N[C@@H](CC(C)C)C(=O)N[C@H](C(=O)N[C@@H](Cc1ccccc1)C(=O)N[C@]1(C)CCCCCCC=CCCC[C@@](C)(C(=O)N[C@@H](C)C(=O)N[C@@H](C)C(=O)N[C@@H](Cc2ccccc2)C(=O)N[C@@H](C)C(=O)N[C@@](C)(CCC(=O)O)C(=O)N[C@@H](Cc2ccccc2)C(N)=O)NC(=O)[C@H](CC2CCC2)NC(=O)[C@H](CCC(N)=O)NC(=O)[C@H](C)NC(=O)[C@H](Cc2c[nH]c3ccccc23)NC(=O)[C@H](Cc2ccc(O)cc2)NC(=O)[C@H](CCC(=O)O)NC1=O)[C@@H](C)O [MP-229] (Ac-[Lys(N3)][βAla]LTF[R8]EYWAQ[Cba][S5]AAFA[αMeE]F-NH2; staple 6-13),–,–,–,–,–,–,"logD ([4]; not stated, Partition Coeff LogD): 2.93; cell entry EC50 (in vitro): 2.09 µM; solubility kinetic ([5]; pH 7, aqueous buffer, kinetic from dmso stock, pH 7, PBS): 153 µM; solubility kinetic [5]: 157 µM; EPSA (EPSA): 253 A^2; EC50 ([3]; LDH: Cytotoxicity assay: EC50): > 50.7 µM; EC50 [6]: 2.32 µM; EC50 (Ca Ski cell line): 19.9 µM"
CC(=O)N[C@@H](CCCCN)C(=O)N[C@@H](CCCCN)C(=O)N[C@H](C(=O)N[C@@H](CO)C(=O)N[C@@H](Cc1ccccc1)C(=O)N[C@]1(C)CCCCCCC=CCCC[C@@](C)(C(N)=O)NC(=O)[C@H](CC(C)C)NC(=O)[C@H](CC(C)C)NC(=O)[C@H](C)NC(=O)[C@H](Cc2c[nH]c3ccccc23)NC(=O)[C@H](Cc2ccc(O)cc2)NC(=O)[C@H](CCC(=O)O)NC1=O)[C@@H](C)O [MP-142],0.0422,15.2,22.09,20.2,72.79,46.7,–
CC(=O)N[C@@H](CCCCN=[N+]=[N-])C(=O)NCCC(=O)N[C@@H](CC(C)C)C(=O)N[C@H](C(=O)N[C@@H](Cc1ccccc1)C(=O)N[C@]1(C)CCCCCCC=CCCC[C@@](C)(C(=O)N[C@@H](C)C(=O)N[C@@H](C)C(=O)N[C@@H](Cc2ccccc2)C(=O)N[C@@H](C)C(=O)N[C@@H](C)C(=O)N[C@@H](Cc2ccccc2)C(N)=O)NC(=O)[C@H](CC2CCC2)NC(=O)[C@H](CCC(N)=O)NC(=O)[C@H](C)NC(=O)[C@H](Cc2c[nH]c3ccccc23)NC(=O)[C@H](Cc2ccc(O)cc2)NC(=O)[C@H](CCC(=O)O)NC1=O)[C@@H](C)O [MP-040] (Ac-[Lys(N3)][βAla]LTF[R8]EYWAQ[Cba][S5]AAFAAF-NH2; staple 6-13),–,–,–,–,–,–,"Partition Coeff LogD [4]: Poorly Behaved; cell entry EC50 (in vitro): 0.439 µM; Solubility [5]: P.B.; Solubility ([5]; pH 7, PBS): Poorly Behaved; EPSA (EPSA): 204 A^2; EC50 ([3]; LDH: Cytotoxicity assay: EC50): > 50.7 µM; EC50 [6]: 1.22 µM; EC50 (Ca Ski cell line): > 49.8 µM"

# Reference: article PMC10786919, “Design-rules for stapled peptides with in vivo activity and their application to Mdm2/X antagonists” (Nature Communications, 2024)
